Experimental data: ChEMBL document CHEMBL1201861, “Genomics of Drug Sensitity in Cancer screening data, Wellcome Trust Sanger Institute”

The compounds below were run on CHP-212 (assay: cells). Details: Homo sapiens.
Assay type: functional, cell-based
Description: SANGER: Inhibition of human CHP-212 cell growth in a cell viability assay.

Compound | IC50
COc1ccc(-c2cc3nccn3c(Nc3ncccc3C(N)=O)n2)cc1OC | 6.45 µM

These compounds were tested on COLO 205 (assay: cells). Details: Homo sapiens.
Assay type: functional, cell-based
Description: SANGER: Inhibition of human COLO-205 cell growth in a cell viability assay.

Compound | IC50
COc1ccc(-c2cc3nccn3c(Nc3ncccc3C(N)=O)n2)cc1OC | 2350 nM

These compounds were tested on MRK-nu-1 (assay: cells). Details: Homo sapiens, MRK-nu-1.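 Further: cell viability assay measuring growth suppression of human MRK-nu-1 cells.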
Assay type: functional, cell-based, Homo sapiens
Description: SANGER: Inhibition of human MRK-nu-1 cell growth in a cell viability assay.

Compound | IC50
COc1ccc(-c2cc3nccn3c(Nc3ncccc3C(N)=O)n2)cc1OC | 2910 nM

The compounds below were run on NCI-H727 (assay: cells). Details: Homo sapiens.
Assay type: functional, cell-based
Description: SANGER: Inhibition of human NCI-H727 cell growth in a cell viability assay.

Compound | IC50
COc1ccc(-c2cc3nccn3c(Nc3ncccc3C(N)=O)n2)cc1OC | 6.15 µM

What follows are compounds tested on BFTC-905 (assay: cells). Details: Homo sapiens.
Assay type: functional, cell-based
Description: SANGER: Inhibition of human BFTC-905 cell growth in a cell viability assay.

Compound | IC50
COc1ccc(-c2cc3nccn3c(Nc3ncccc3C(N)=O)n2)cc1OC | 2290 nM

These compounds were tested on HMV-2 cell line (assay: cells). Details: Homo sapiens.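 Further: growth inhibition of HMV-II cells, read out with a cell viability assay.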
Assay type: functional, cell-based
Description: SANGER: Inhibition of human HMV-II cell growth in a cell viability assay.

Compound | IC50
COc1ccc(-c2cc3nccn3c(Nc3ncccc3C(N)=O)n2)cc1OC | 664 nM

These compounds were tested on NCI-H1693 (assay: cells). Details: Homo sapiens.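 Further: growth inhibition of the human cell line, read out with a cell viability assay.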
Assay type: functional, cell-based
Description: SANGER: Inhibition of human NCI-H1693 cell growth in a cell viability assay.

Compound | IC50
COc1ccc(-c2cc3nccn3c(Nc3ncccc3C(N)=O)n2)cc1OC | > 8 µM

What follows are compounds tested on RERF-LC-MS (assay: cells). Details: Homo sapiens.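 Further: growth inhibition of human RERF-LC-MS cells, read out by a cell viability assay.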
Assay type: functional, cell-based
Description: SANGER: Inhibition of human RERF-LC-MS cell growth in a cell viability assay.

Compound | IC50
COc1ccc(-c2cc3nccn3c(Nc3ncccc3C(N)=O)n2)cc1OC | > 8 µM

These compounds were tested on LC-1F (assay: cells). Details: Homo sapiens, LC-1F.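 Further: growth inhibition of human LC-1F cells, read out with a cell viability assay.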
Assay type: functional, cell-based, Homo sapiens
Description: SANGER: Inhibition of human LC-1F cell growth in a cell viability assay.

Compound | IC50
COc1ccc(-c2cc3nccn3c(Nc3ncccc3C(N)=O)n2)cc1OC | > 8 µM

Each compound was assayed on TCC-SUP (assay: cells). Details: Homo sapiens.
Assay type: functional, cell-based
Description: SANGER: Inhibition of human TCCSUP cell growth in a cell viability assay.

Compound | IC50
COc1ccc(-c2cc3nccn3c(Nc3ncccc3C(N)=O)n2)cc1OC | > 8 µM

The compounds below were run on CMK (assay: cells). Details: Homo sapiens, CMK.
Assay type: functional, cell-based, Homo sapiens
Description: SANGER: Inhibition of human CMK cell growth in a cell viability assay.

Compound | IC50
COc1ccc(-c2cc3nccn3c(Nc3ncccc3C(N)=O)n2)cc1OC | 682 nM

The compounds below were run on Detroit 562 (assay: cells). Details: Homo sapiens.
Assay type: functional, cell-based
Description: SANGER: Inhibition of human Detroit562 cell growth in a cell viability assay.

Compound | IC50
COc1ccc(-c2cc3nccn3c(Nc3ncccc3C(N)=O)n2)cc1OC | 3.88 µM

These compounds were tested on BEN (assay: cells). Details: Homo sapiens.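 Further: growth inhibition of the BEN cell line, read out with a cell viability assay.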
Assay type: functional, cell-based
Description: SANGER: Inhibition of human BEN cell growth in a cell viability assay.

Compound | IC50
COc1ccc(-c2cc3nccn3c(Nc3ncccc3C(N)=O)n2)cc1OC | > 8 µM

These compounds were tested on D-542MG (assay: cells). Details: Homo sapiens.
Assay type: functional, cell-based
Description: SANGER: Inhibition of human D-542MG cell growth in a cell viability assay.

Compound | IC50
COc1ccc(-c2cc3nccn3c(Nc3ncccc3C(N)=O)n2)cc1OC | > 8 µM

Each compound was assayed on SW837 (assay: cells). Details: Homo sapiens.
Assay type: functional, cell-based
Description: SANGER: Inhibition of human SW837 cell growth in a cell viability assay.

Compound | IC50
COc1ccc(-c2cc3nccn3c(Nc3ncccc3C(N)=O)n2)cc1OC | 3.54 µM

The compounds below were run on NB12 (assay: cells). Details: Homo sapiens.
Assay type: functional, cell-based
Description: SANGER: Inhibition of human NB12 cell growth in a cell viability assay.

Compound | IC50
COc1ccc(-c2cc3nccn3c(Nc3ncccc3C(N)=O)n2)cc1OC | > 8 µM

These compounds were tested on HCC1143 (assay: cells). Details: Homo sapiens.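 Further: growth inhibition of human HCC1143 cells, read out with a cell viability assay.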
Assay type: functional, cell-based
Description: SANGER: Inhibition of human HCC1143 cell growth in a cell viability assay.

Compound | IC50
COc1ccc(-c2cc3nccn3c(Nc3ncccc3C(N)=O)n2)cc1OC | > 8 µM

The compounds below were run on EW-24 (assay: cells). Details: Homo sapiens, EW-24.
Assay type: functional, cell-based, Homo sapiens
Description: SANGER: Inhibition of human EW-24 cell growth in a cell viability assay.

Compound | IC50
COc1ccc(-c2cc3nccn3c(Nc3ncccc3C(N)=O)n2)cc1OC | > 8 µM

These compounds were tested on SNG-M (assay: cells). Details: Homo sapiens.
Assay type: functional, cell-based
Description: SANGER: Inhibition of human SNG-M cell growth in a cell viability assay.

Compound | IC50
COc1ccc(-c2cc3nccn3c(Nc3ncccc3C(N)=O)n2)cc1OC | 2260 nM

What follows are compounds tested on NCI-H1792 (assay: cells). Details: Homo sapiens.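 Further: growth inhibition of human NCI-H1792 cells, read out as cell viability.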
Assay type: functional, cell-based
Description: SANGER: Inhibition of human NCI-H1792 cell growth in a cell viability assay.

Compound | IC50
COc1ccc(-c2cc3nccn3c(Nc3ncccc3C(N)=O)n2)cc1OC | > 8 µM

Each compound was assayed on GDM-1 (assay: cells). Details: Homo sapiens, GDM-1; read-out: IC50.
Assay type: functional, cell-based, Homo sapiens
Description: SANGER: Inhibition of human GDM-1 cell growth in a cell viability assay.

Compound | IC50
COc1ccc(-c2cc3nccn3c(Nc3ncccc3C(N)=O)n2)cc1OC | 683 nM

Each compound was assayed on SW-620 (assay: cells). Details: Homo sapiens.
Assay type: functional, cell-based
Description: SANGER: Inhibition of human SW620 cell growth in a cell viability assay.

Compound | IC50
COc1ccc(-c2cc3nccn3c(Nc3ncccc3C(N)=O)n2)cc1OC | 3.31 µM

Each compound was assayed on COLO-741 (assay: cells). Details: Homo sapiens.
Assay type: functional, cell-based
Description: SANGER: Inhibition of human COLO-741 cell growth in a cell viability assay.

Compound | IC50
COc1ccc(-c2cc3nccn3c(Nc3ncccc3C(N)=O)n2)cc1OC | > 8 µM

What follows are compounds tested on SNU-475 (assay: cells). Details: Homo sapiens.
Assay type: functional, cell-based
Description: SANGER: Inhibition of human SNU-475 cell growth in a cell viability assay.

Compound | IC50
COc1ccc(-c2cc3nccn3c(Nc3ncccc3C(N)=O)n2)cc1OC | > 8 µM

What follows are compounds tested on COR-L23 (assay: cells). Details: Homo sapiens.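 Further: cell viability assay measuring how strongly compounds suppress growth of COR-L23 cells.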
Assay type: functional, cell-based
Description: SANGER: Inhibition of human COR-L23 cell growth in a cell viability assay.

Compound | IC50
COc1ccc(-c2cc3nccn3c(Nc3ncccc3C(N)=O)n2)cc1OC | 2380 nM

Each compound was assayed on LoVo (assay: cells). Details: Homo sapiens.
Assay type: functional, cell-based
Description: SANGER: Inhibition of human LoVo cell growth in a cell viability assay.

Compound | IC50
COc1ccc(-c2cc3nccn3c(Nc3ncccc3C(N)=O)n2)cc1OC | 2610 nM

The compounds below were run on UACC-893 (assay: cells). Details: Homo sapiens.
Assay type: functional, cell-based
Description: SANGER: Inhibition of human UACC-893 cell growth in a cell viability assay.

Compound | IC50
COc1ccc(-c2cc3nccn3c(Nc3ncccc3C(N)=O)n2)cc1OC | > 8 µM

The compounds below were run on PC-14 (assay: cells). Details: Homo sapiens.
Assay type: functional, cell-based
Description: SANGER: Inhibition of human PC-14 cell growth in a cell viability assay.

Compound | IC50
COc1ccc(-c2cc3nccn3c(Nc3ncccc3C(N)=O)n2)cc1OC | > 8 µM

The compounds below were run on SK-MEL3 (assay: cells). Details: Homo sapiens.
Assay type: functional, cell-based, SK-MEL-3
Description: SANGER: Inhibition of human SK-MEL-3 cell growth in a cell viability assay.

Compound | IC50
COc1ccc(-c2cc3nccn3c(Nc3ncccc3C(N)=O)n2)cc1OC | 5.06 µM

What follows are compounds tested on OVCAR-3 (assay: cells). Details: Homo sapiens.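 Further: growth inhibition of human OVCAR-3 cells, determined by a cell viability assay.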
Assay type: functional, cell-based
Description: SANGER: Inhibition of human OVCAR-3 cell growth in a cell viability assay.

Compound | IC50
COc1ccc(-c2cc3nccn3c(Nc3ncccc3C(N)=O)n2)cc1OC | > 8 µM

What follows are compounds tested on CCF-STTG1 (assay: cells). Details: Homo sapiens.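 Further: growth inhibition of human CCF-STTG1 cells, determined with a cell viability read-out.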
Assay type: functional, cell-based
Description: SANGER: Inhibition of human CCF-STTG1 cell growth in a cell viability assay.

Compound | IC50
COc1ccc(-c2cc3nccn3c(Nc3ncccc3C(N)=O)n2)cc1OC | 7.24 µM

What follows are compounds tested on MCF7 (assay: cells). Details: Homo sapiens.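 Further: growth inhibition of human MCF7 cells, read out with a cell viability assay.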
Assay type: functional, cell-based
Description: SANGER: Inhibition of human MCF7 cell growth in a cell viability assay.

Compound | IC50
COc1ccc(-c2cc3nccn3c(Nc3ncccc3C(N)=O)n2)cc1OC | 1150 nM

Each compound was assayed on OAW-42 (assay: cells). Details: Homo sapiens.
Assay type: functional, cell-based
Description: SANGER: Inhibition of human OAW-42 cell growth in a cell viability assay.

Compound | IC50
COc1ccc(-c2cc3nccn3c(Nc3ncccc3C(N)=O)n2)cc1OC | > 8 µM

Each compound was assayed on D-392MG (assay: cells). Details: Homo sapiens.
Assay type: functional, cell-based

Compound | IC50
COc1ccc(-c2cc3nccn3c(Nc3ncccc3C(N)=O)n2)cc1OC | > 8 µM

Each compound was assayed on SK-CO-1 (assay: cells). Details: Homo sapiens.
Assay type: functional, cell-based
Description: SANGER: Inhibition of human SK-CO-1 cell growth in a cell viability assay.

Compound | IC50
COc1ccc(-c2cc3nccn3c(Nc3ncccc3C(N)=O)n2)cc1OC | > 8 µM

Each compound was assayed on NCI-H1963 (assay: cells). Details: Homo sapiens, NCI-H1963.
Assay type: functional, cell-based, Homo sapiens
Description: SANGER: Inhibition of human NCI-H1963 cell growth in a cell viability assay.

Compound | IC50
COc1ccc(-c2cc3nccn3c(Nc3ncccc3C(N)=O)n2)cc1OC | > 8 µM

These compounds were tested on ECC4 (assay: cells). Details: Homo sapiens, ECC4.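 Further: growth inhibition of ECC4 cells, read out with a cell viability assay.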
Assay type: functional, cell-based, Homo sapiens
Description: SANGER: Inhibition of human ECC4 cell growth in a cell viability assay.

Compound | IC50
COc1ccc(-c2cc3nccn3c(Nc3ncccc3C(N)=O)n2)cc1OC | > 8 µM

The compounds below were run on DMS-53 (assay: cells). Details: Homo sapiens.
Assay type: functional, cell-based
Description: SANGER: Inhibition of human DMS-53 cell growth in a cell viability assay.

Compound | IC50
COc1ccc(-c2cc3nccn3c(Nc3ncccc3C(N)=O)n2)cc1OC | > 8 µM

Each compound was assayed on EFO-21 (assay: cells). Details: Homo sapiens.
Assay type: functional, cell-based
Description: SANGER: Inhibition of human EFO-21 cell growth in a cell viability assay.

Compound | IC50
COc1ccc(-c2cc3nccn3c(Nc3ncccc3C(N)=O)n2)cc1OC | > 8 µM

Each compound was assayed on AU565 (assay: cells). Details: Homo sapiens.
Assay type: functional, cell-based
Description: SANGER: Inhibition of human AU565 cell growth in a cell viability assay.

Compound | IC50
COc1ccc(-c2cc3nccn3c(Nc3ncccc3C(N)=O)n2)cc1OC | 7.15 µM

Each compound was assayed on UACC-812 (assay: cells). Details: Homo sapiens.
Assay type: functional, cell-based
Description: SANGER: Inhibition of human UACC-812 cell growth in a cell viability assay.

Compound | IC50
COc1ccc(-c2cc3nccn3c(Nc3ncccc3C(N)=O)n2)cc1OC | > 8 µM

The compounds below were run on PLC-PRF-5 (assay: cells). Details: Homo sapiens.
Assay type: functional, cell-based
Description: SANGER: Inhibition of human PLC-PRF-5 cell growth in a cell viability assay.

Compound | IC50
COc1ccc(-c2cc3nccn3c(Nc3ncccc3C(N)=O)n2)cc1OC | > 8 µM

What follows are compounds tested on SNU-387 (assay: cells). Details: Homo sapiens.
Assay type: functional, cell-based
Description: SANGER: Inhibition of human SNU-387 cell growth in a cell viability assay.

Compound | IC50
COc1ccc(-c2cc3nccn3c(Nc3ncccc3C(N)=O)n2)cc1OC | 2900 nM

The compounds below were run on C-4-II (assay: SANGER: Inhibition of human C-4-II cell growth in a cell viability assay.). Details: not given.
Assay type: functional, cell-based

Compound | IC50
COc1ccc(-c2cc3nccn3c(Nc3ncccc3C(N)=O)n2)cc1OC | > 8 µM

Each compound was assayed on SCC-9 (assay: cells). Details: Homo sapiens.
Assay type: functional, cell-based
Description: SANGER: Inhibition of human SCC-9 cell growth in a cell viability assay.

Compound | IC50
COc1ccc(-c2cc3nccn3c(Nc3ncccc3C(N)=O)n2)cc1OC | > 8 µM

Each compound was assayed on LOUCY (assay: cells). Details: Homo sapiens, LOUCY.
Assay type: functional, cell-based, Homo sapiens
Description: SANGER: Inhibition of human LOUCY cell growth in a cell viability assay.

Compound | IC50
COc1ccc(-c2cc3nccn3c(Nc3ncccc3C(N)=O)n2)cc1OC | 3.65 µM

What follows are compounds tested on LCLC-97TM1 (assay: cells). Details: Homo sapiens.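 Further: cell viability assay measuring growth inhibition of human LCLC-97TM1 cells.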
Assay type: functional, cell-based
Description: SANGER: Inhibition of human LCLC-97TM1 cell growth in a cell viability assay.

Compound | IC50
COc1ccc(-c2cc3nccn3c(Nc3ncccc3C(N)=O)n2)cc1OC | 570 nM

These compounds were tested on NCI-H358 (assay: cells). Details: Homo sapiens.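 Further: growth inhibition of NCI-H358 human cells, read out with a cell viability assay.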
Assay type: functional, cell-based
Description: SANGER: Inhibition of human NCI-H358 cell growth in a cell viability assay.

Compound | IC50
COc1ccc(-c2cc3nccn3c(Nc3ncccc3C(N)=O)n2)cc1OC | 689 nM

What follows are compounds tested on RL (assay: cells). Details: Homo sapiens, RL.
Assay type: functional, cell-based, Homo sapiens
Description: SANGER: Inhibition of human RL cell growth in a cell viability assay.

Compound | IC50
COc1ccc(-c2cc3nccn3c(Nc3ncccc3C(N)=O)n2)cc1OC | > 8 µM
